Patent US6245734A (priority 1997, dated 2001)
≈ marks a conversion by molar mass, not a printed value. Where two headings read alike, the source gives them in different places.

How the values were obtained:
BxPC-3 cell = settings: 3 μg/ml adriamycin, from start of treatment; cited from earlier work
AsPC-1 cell = settings: 30 μg/ml adriamycin; cited from earlier work
[1] = system: leukemia cells and experimental cancer cells artificially generated by carcinogen virus and the like; settings: cited from earlier work
[2] = system: spontaneously generated human solid cancer cells; settings: cited from earlier work
incubated cancer cells = settings: cited from earlier work
AsPC-1 cells [3] = test: Apoptosis-inducing activity on human pancreatic cancer cell AsPC-1 (Trypan Blue); type: cell-based; settings: for IC50: Homo sapiens, read-out: IC50 (concentration at which cell death by apoptosis is induced at 50% of total AsPC-1 cells); for time after drug treatment in which apoptosis was induced on AsPC-1 cells: after the drug treatment
Protocol: A cell suspension containing the AsPC-1 cells suspended in an RPMI 1640 culture medium containing 10% FBS was prepared, and 500 μl-portion each of the cell suspension was placed in a 24-well plastic plate in a proportion of 1×10^5 cells/well. The cell suspension was incubated at 37° C. under 5% CO2 for 1 day. The AsPC-1 cells adhered onto the bottom surface of each well. Subsequently, polyoxypeptin or deoxypolyoxypeptin was added to the liquid culture medium present in each well so as to give the substance under test at a concentration of 3, 100 or 300 μg/ml. The cells were incubated for 24 hours.
Immediately after the incubation for 24 hours, the supernatant liquid (500 μl) of the culture medium remaining in each well was removed from each well of said plastic plate and discarded. Then, the plastic plate was washed twice with a PBS buffer solution (each 300 μl), and the washings were discharged. Thereafter, a trypsin-EDTA buffer solution (200 μl) was added to said plastic plate, and the incubation was effected at 37° C. under CO2 -free condition so as to peel the cells off from the plate. The cells so peeled were transferred to an Eppendorf tube. The Eppendorf tube was centrifuged (2400 rpm, 10 minutes) to deposit the cells down, and the super-natant was removed and discarded. A fresh amount of the liquid culture medium was added to the cells. An 80 μl-portion of the resulting cell suspension as formed in said tube was taken into another Eppendorf tube, to which were then added 20 μl of Trypan Blue staining solution (containing 4 mg/ml of Trypan Blue and 9 mg/ml of NaCl). The cell suspension was taken out from the resulting mixture by a pipette, and the cell suspension so pipetted was placed on a hemocytometer (made by Elma Co.). The cell sample was observed under a microscope of 100 magnifications. The number of the dead cells as blue-colored amongst the cells under observation, and the total number of whole cells under observation were counted.
The survival rate (%) of the cells was calculated by an equation of 100-[(number of dead cells.div. total number of tested cells)×100].

AsPC-1 cells [4] = test: Activity inhibitory to the proliferation of human pancreatic cancer cell AsPC-1 (MTT assay); type: cell-based; settings: ASPC1, 48 h, read-out: IC50 (concentration at which proliferation of AsPC-1 cells was inhibited by 50%)
Protocol: A cell suspension of AsPC-1 cells suspended in an RPMI 1640 culture medium containing 10% FBS was prepared, and 100 μl-portion each of said cell suspension was placed in a 96-well plastic plate in a proportion of 3×10^3 cells/well. Each plate was then incubated at 37° C. under a 5% CO2 for 1 day. Subsequently, polyoxypeptin or deoxypolyoxypeptin was added to the liquid culture medium present in each well at a concentration of 1, 3, 10, 30 or 100 ng/ml of said compound. Then the incubation of the cells was effected for 2 days. Then, the number of cells was counted by MTT assay method.

[5] = system: Human T cell leukemia Jurkat; test: Cytocidal activity, Trypan Blue; type: cell-based; settings: read-out: IC50 (concentration required to kill 50% of cells)
Protocol: (§1) Various cancer cells as shown in Table 1 below were incubated for 24 hours on such culture medium as shown in the table which contained polyoxypeptin or deoxypolyoxypeptin added at various concentrations. After staining with Trypan Blue, the number.of the dead cells was counted, and the concentration of polyoxypeptin or deoxypolyoxypeptin required to kill 50% of the total number of cells of the cancer cells under test, namely the value of IC50, was calculated therefrom.

[6] = system: Human bibrosarcoma HT1080; test: Cytocidal activity, Trypan Blue; type: cell-based; settings: read-out: IC50 (concentration required to kill 50% of cells)
Protocol: as §1

[7] = system: Human chronic promyeloleukemia K562; test: Cytocidal activity, Trypan Blue; type: cell-based; settings: read-out: IC50 (concentration required to kill 50% of cells)
Protocol: as §1

Human epithelioma A431 = test: Cytocidal activity, Trypan Blue; type: cell-based; settings: read-out: IC50 (concentration required to kill 50% of cells)
Protocol: as §1

[8] = system: Human pancreatic adenocarcinoma cells AsPC-1; test: Cytocidal activity, Trypan Blue; type: cell-based; settings: read-out: IC50 (concentration required to kill 50% of cells)
Protocol: as §1

[9] = system: Human pancreatic adenocarcinoma cells BxPC-3; test: Cytocidal activity, Trypan Blue; type: cell-based; settings: read-out: IC50 (concentration required to kill 50% of cells)
Protocol: as §1

[10] = system: Human pancreatic adenocarcinoma cells PSN-1; test: Cytocidal activity, Trypan Blue; type: cell-based; settings: read-out: IC50 (concentration required to kill 50% of cells)
Protocol: as §1

[11] = system: Human pancreatic adenocarcinoma cells Panc-1; test: Cytocidal activity, Trypan Blue; type: cell-based; settings: read-out: IC50 (concentration required to kill 50% of cells)
Protocol: as §1

[12] = system: Human promyeloleukemia HL-60; test: Cytocidal activity, Trypan Blue; type: cell-based; settings: read-out: IC50 (concentration required to kill 50% of cells)
Protocol: as §1

[13] = system: Human uterus body cancer HHUA; test: Cytocidal activity, Trypan Blue; type: cell-based; settings: read-out: IC50 (concentration required to kill 50% of cells)
Protocol: as §1

[14] = system: Mouse fibroblast cell A4 (cerbB2-NIH3T3); test: Cytocidal activity, Trypan Blue; type: cell-based; settings: read-out: IC50 (concentration required to kill 50% of cells)
Protocol: as §1

[15] = system: Mouse fibroblast cell K-ras-NIH3T3; test: Cytocidal activity, Trypan Blue; type: cell-based; settings: read-out: IC50 (concentration required to kill 50% of cells)
Protocol: as §1

[16] = system: Mouse fibroblast cell NIH3T3; test: Cytocidal activity, Trypan Blue; type: cell-based; settings: read-out: IC50 (concentration required to kill 50% of cells)
Protocol: as §1

[17] = system: Mouse fibroblast cell RSV-NIH3T3 (src-transformed NIH3T3); test: Cytocidal activity, Trypan Blue; type: cell-based; settings: read-out: IC50 (concentration required to kill 50% of cells)
Protocol: as §1

[18] = system: Rat fibroblast cell K-ras-NRK; test: Cytocidal activity, Trypan Blue; type: cell-based; settings: read-out: IC50 (concentration required to kill 50% of cells)
Protocol: as §1

Rat fibroblast cell NRK = test: Cytocidal activity, Trypan Blue; type: cell-based; settings: read-out: IC50 (concentration required to kill 50% of cells)
Protocol: as §1

Escherichia coli = test: Antibacterial activity, serial dilution on Muller-Hinton agar; type: cell-based; settings: gram-negative bacteria such as Escherichia coli
Protocol: Antibacterial spectra of polyoxypeptin and deoxypoly-oxypeptin against various microorganisms were determined on Muller-Hinton agar medium by a serial dilution method on the basis of the standard method of Japan Society of Chemotherapy.

mice = test: Acute toxicity in mice, single intravenous injection; type: in vivo, mouse; settings: administered once by intravenous injection
[19] = system: other human solid cancer cells; test: Apoptosis induction on other human solid cancer cells; type: cell-based
Solubility = settings: for Solubility in organic solvents: methanol, ethanol, aqueous ethanol, chloroform, ethyl acetate, acetone, (n-)butanol, acetonitrile, toluene, dimethylsulfoxide

Question: Which results are given for `COc1cccc2c1C(=O)c1c(O)c3c(c(O)c1C2=O)C[C@@](O)(C(=O)CO)C[C@@H]3O[C@H]1C[C@H](N)[C@H](O)[C@H](C)O1` [adriamycin]?
Answer: time within which apoptosis is induced on BxPC-3 cell (BxPC-3 cell): ≤ 24 h; apoptosis induction on AsPC-1 cell (AsPC-1 cell): does not induce apoptosis; apoptosis induction on leukemia cells and experimental cancer cells [1]: can have an activity of inducing the apoptosis; apoptosis induction on many spontaneously generated human solid cancer cells [2]: does not induce apoptosis; apoptosis induction on some of incubated cancer cells (incubated cancer cells): have the activities of inducing the apoptosis

Question: Which “apoptosis induction on leukemia cells and experimental cancer cells” value [1] does the source give for `N.N.[Cl][Pt][Cl]` [cisplatin] here?
Answer: can have an activity of inducing the apoptosis

Question: And the “apoptosis induction on many spontaneously generated human solid cancer cells” value [2]?
Answer: does not induce apoptosis

Question: And the “apoptosis induction on some of incubated cancer cells” value (incubated cancer cells)?
Answer: have the activities of inducing the apoptosis

Question: Which results are given for `CCC(C)CC1CCC(O)(C(C)(O)C(=O)NC2C(=O)N3NCCCC3C(=O)N(O)C(C)C(=O)N3NCCCC3C(=O)N3CCC(C)(O)C3C(=O)N(O)C(C(C)C)C(=O)OC2C(C)C)OC1CC` (centres unmarked) [deoxypolyoxypeptin]?
Answer: IC50 (AsPC-1 cells [3]; ASPC1, 24 hours incubation, RPMI 1640 with 10% FBS): 0.08 µg/mL (≈ 0.0839 µM); time after drug treatment in which apoptosis was induced on AsPC-1 cells (AsPC-1 cells [3]): approximately 24 hours; IC50 (AsPC-1 cells [4]; 2 days incubation, MTT, RPMI 1640 with 10% FBS): 0.015 µg/mL (≈ 0.0157 µM); IC50 ([5]; 24 hours, medium B): 0.05 µg/mL (≈ 0.0525 µM); IC50 ([6]; HT-1080, HT1080, 24 hours, medium D): 0.02 µg/mL (≈ 0.021 µM); IC50 ([7]; K562, 24 hours, medium A): 0.02 µg/mL (≈ 0.021 µM); IC50 (Human epithelioma A431; A-431, A431, 24 hours, medium C): 0.03 µg/mL (≈ 0.0315 µM); IC50 ([8]; ASPC1, AsPC-1, 24 hours, medium A): 0.08 µg/mL (≈ 0.0839 µM); IC50 ([9]; BxPC-3, 24 hours, medium A): 0.03 µg/mL (≈ 0.0315 µM); IC50 ([10]; PSN1, PSN-1, 24 hours, medium A): 0.01 µg/mL (≈ 0.0105 µM); IC50 ([11]; Panc-1, 24 hours, medium A): 0.05 µg/mL (≈ 0.0525 µM); IC50 ([12]; HL-60, 24 hours, medium A): 0.04 µg/mL (≈ 0.042 µM); IC50 ([13]; HHUA, 24 hours, medium D): 0.05 µg/mL (≈ 0.0525 µM); IC50 ([14]; A4 (cerbB2-NIH3T3), 24 hours, medium A): 0.06 µg/mL (≈ 0.0629 µM); IC50 ([15]; K-ras-NIH3T3, 24 hours, medium A): 0.1 µg/mL (≈ 0.105 µM); IC50 ([16]; NIH3T3, 24 hours, medium A): 0.05 µg/mL (≈ 0.0525 µM); IC50 ([17]; RSV-NIH3T3 (src-transformed NIH3T3), 24 hours, medium A): 0.06 µg/mL (≈ 0.0629 µM); IC50 ([18]; K-ras-NRK, 24 hours, medium C): 0.05 µg/mL (≈ 0.0525 µM); IC50 (Rat fibroblast cell NRK; NRK, 24 hours, medium C): 0.18 µg/mL (≈ 0.189 µM); antibacterial activity against gram-negative bacteria (Escherichia coli): did not exhibit any antibacterial activity; LD50 (mice): 125 μg/mouse; apoptosis-inducing activity on other human solid cancer cells [19]: have also an activity of inducing apoptosis; Solubility in organic solvents (Solubility): Soluble; Solubility in water (Solubility): hardly soluble

Question: For `CCC(C)CC1CCC(O)(C(C)(O)C(=O)NC2C(=O)N3NCCCC3C(=O)N(O)C(C)C(=O)N3NCC(O)CC3C(=O)N3CCC(C)(O)C3C(=O)N(O)C(C(C)C)C(=O)OC2C(C)C)OC1CC` (centres unmarked) [polyoxypeptin], which IC50 (AsPC-1 cells [3]; ASPC1, 24 h) is on record?
Answer: 0.08 µg/mL (≈ 0.0825 µM)

Question: And the “time after drug treatment in which apoptosis was induced on AsPC-1 cells” value (AsPC-1 cells [3])?
Answer: approximately 24 hours

Question: And the IC50 (AsPC-1 cells [4])?
Answer: 0.015 µg/mL (≈ 0.0155 µM)

Question: What about the IC50 ([5]; 24 h) of the same compound?
Answer: 0.05 µg/mL (≈ 0.0516 µM)

Question: And the IC50 ([6]; HT-1080, 24 h)?
Answer: 0.02 µg/mL (≈ 0.0206 µM)

Question: What about the IC50 ([7]; K562, 24 h) of the same compound?
Answer: 0.02 µg/mL (≈ 0.0206 µM)

Question: And the IC50 (Human epithelioma A431; A-431, 24 h)?
Answer: 0.03 µg/mL (≈ 0.031 µM)

Question: What about the IC50 ([8]; ASPC1, 24 h) of the same compound?
Answer: 0.08 µg/mL (≈ 0.0825 µM)

Question: And the IC50 ([9]; BXPC-3, 24 h)?
Answer: 0.03 µg/mL (≈ 0.031 µM)

Question: What about the IC50 ([10]; PSN1, 24 h) of the same compound?
Answer: 0.01 µg/mL (≈ 0.0103 µM)

Question: What about the IC50 ([11]; PANC-1, 24 h) of the same compound?
Answer: 0.05 µg/mL (≈ 0.0516 µM)

Question: And the IC50 ([12]; HL-60, 24 h)?
Answer: 0.04 µg/mL (≈ 0.0413 µM)

Question: And the IC50 ([13]; 24 h)?
Answer: 0.05 µg/mL (≈ 0.0516 µM)

Question: And the IC50 ([14]; 24 h)?
Answer: 0.06 µg/mL (≈ 0.0619 µM)

Question: What about the IC50 ([15]; 24 h) of the same compound?
Answer: 0.1 µg/mL (≈ 0.103 µM)

Question: What about the IC50 ([16]; NIH3T3, 24 h) of the same compound?
Answer: 0.05 µg/mL (≈ 0.0516 µM)

Question: And the IC50 ([17]; NIH3T3, 24 h)?
Answer: 0.06 µg/mL (≈ 0.0619 µM)

Question: And the IC50 ([18]; 24 h)?
Answer: 0.05 µg/mL (≈ 0.0516 µM)

Question: And the IC50 (Rat fibroblast cell NRK; 24 h)?
Answer: 0.18 µg/mL (≈ 0.186 µM)

Question: What about the “antibacterial activity against gram-negative bacteria” value (Escherichia coli) of the same compound?
Answer: did not exhibit any antibacterial activity

Question: And the LD50 (mice)?
Answer: 67.5 μg/mouse

Question: And the “apoptosis-inducing activity on other human solid cancer cells” value [19]?
Answer: have also an activity of inducing apoptosis

Question: What about the “Solubility in organic solvents” value (Solubility) of the same compound?
Answer: Soluble

Question: What about the Solubility in water (Solubility) of the same compound?
Answer: hardly soluble
